Patent publication US8324282B2, “Alkylating agent combinations in the treatment of cancer” (Case Western Reserve University, priority 1999, dated 2012)

Assays:
DEtp cell line = assay: DEtp subline of DLD1; format: cell-based; conditions: DEtp cell line
Source text: We also investigated whether TMZ and MX-induced MX-AP sites may also act as poisons of topoisomerase II α (topo II), producing dual lethal targets. To analyze the effect of MX-AP site on topo II-mediated DNA cleavage, a position-specific MX-AP site was generated on topo II cleavage sites using oligonuleotides for cleavage assay. […] We also found prolonged induction of topo II and remarkable increase in DNA double strand breaks in cells treated with TMZ and MX compared to TMZ alone. Similar results were also observed in cells treated with etoposide but not with N-methyl-maleimide (a catalytic inhibitor of topo II and also an antagonizer of etoposide). Moreover, the potentiation of TMZ by MX was decreased in DEtp cell line that was a subline derived from DLD1 and 5-fold more resistant to etoposide compared to the parental cell line.

HCT116 xenograft = HCT116 xenograft tumor response in nude mice; format: in vivo; conditions: HCT116 xenograft; Table 2 doses: TMZ 120, MX 2, MX+TMZ 2/120 mg/kg; daily for 5 days
AP sites in SW480 cells = assay: AP sites measured with ARP reagent and S phase in SW480 cells, prolonged MX exposure; conditions: MX and TMZ over 72 h
Source text: Cell lines used in this study include SW480 (MMR wt, p53 mut), HCT116 (hMLH1 mut, p53 wt) and HCT15 (hMSH6 mut, p53 mut). We measured AP sites using ARP reagent, noting that ARP and MX compete for binding to AP sites. […] It is likely that cytotoxicity elicited by both topol/II inhibitors and MX-AP sites is due to DNA cleavable complexes, and is thus dependent on the level of topo I/II expression.

[1] = tested on: human bone marrow cells (CD34+ cells); assay: Colony forming assay, human bone marrow / CD34+ cells; format: cell-based; conditions: human CD34+ cells; colony forming assay
Source text: We observed less myelosuppression and less weight loss using TMZ and MX than using TMZ and BG. […] To test this hypothesis, we conducted in vitro experiments comparing the sensitivity to BG+TMZ and MX+TMZ in colon cancer cell lines with that of mouse bone marrow and human bone marrow cells. […] MX increased TMZ killing by 4 fold in SW480 cells. […] Topoisomerase (Topo) I and Topo II recognize spontaneous AP sites and form stable cleavable complexes. We hypothesized that AP sites formed during repair of TMZ-induced N7 mG and N3 mA adducts would also be recognized by Topo I and Topo II. However since Base Excision Repair [BER] is normally quite efficient, we further hypothesized that the impact of Topo I and Topo II would be most important after MX inhibition of BER; increased unrepaired MX adducted AP sites should increase Topo mediated strand breaks and apoptosis. Therefore, potentiation of TMZ cytotoxicity by MX would be dependent on Topo I and II. […] Lack of Topo I and II results in less cleavable complex formation, fewer double strand DNA breaks, and less apoptosis. We predict a better therapeutic index for the combination of MX/TMZ than observed with BG/TMZ because of the relative overexpression of topoisomerases I and II in malignant cells compared to marrow progenitors.

HCT116 cells = assay: Growth inhibition assay (MTT), HCT116; format: cell-based, human; conditions: HCT116; MX 6 mM plus H2O2 0-150 μM 1 hr
Protocol: In this experiment, a growth inhibition assay was carried out with H2O2, an oxidizing agent that mimics the effect of chemotherapeutic agents and radiation. Cells in the exponential phase were plated (1×10^4) in 24-well tissue culture plates. After attachment overnight, the cells were incubated with hydrogen peroxide (H2O2) (0-150 μM) or MX (6 mM) plus H2O2 for 1 hr. Five days after treatment, the media was discarded, and 100 μl of MTT (5 mg/ml in PBS) was added in 1 ml fresh media to each well for 4 hrs at 37° C. The MTT solution was then removed, and the formazan crystals were dissolved in 200 μl/well of DMSO for 20 min and changes in absorbance were determined at A540nm. Percentage growth inhibition was calculated by comparison of the A540nm reading from treated versus control cells.
The agents contemplated for combinations with MX in this example are agents which incorporate into DNA and are repaired by BER to form AP sites. Cell-growth inhibition was carried out with HCT116 cells to test MX-potentiated cytotoxicity of iododeoxyuridine (IUdR), which has been recognized as a radiosensitizing agent since the early 1960's.

SW480 xenograft = SW480 xenograft tumor response in nude mice; format: in vivo; conditions: SW480 xenograft; Table 1 doses: TMZ 120, MX 2, BG+TMZ 30/120, MX+TMZ 2/120 mg/kg; daily for 5 days
[2] = tested on: AP sites in calf thymus DNA; assay: Competitive AP site binding assayed by Aldehyde Reactive Probe (ARP); conditions: MX 5-20 mM
Source text: 1. Analysis of chemical—modified AP Sites assayed by Aldehyde Reactive Probe (ARP). This is a competitive assay to measure the reactivity with AP site between ARP reagent (Dojindo Molecular Technologies Inc., Gaithersburg, Md.) and the screening compounds. ARP and MX have a similar reactivity with AP sites. They react specifically with an aldehyde group that is open ring form of the AP sites. Thus this assay will allow identification of compounds with potential to block AP site repair based on the binding affinity and efficiency to AP sites of screening compounds compared to ARP and MX.
a. AP site standard preparation: AP sites were produced in a calf thymus DNA by heat/acid-buffer solution. Intact calf thymus DNA was added to sodium citrate buffer (10 mM sodium citrate containing 10 mM NaH2PO4 and 10 mM NaCl, pH 5.0) and held at 70° C. for 30 min. The reaction was stopped by chilling rapidly on ice, and the DNA was then precipitated with cold ethanol, washed with 70% ethanol, dried, and resuspended in sterilized distilled water.
b. […] After NC membrane was rinsed with washing buffer containing NaCl (0.26 M), EDTA (1 mM), Tris-HCI (20 mM), and Tween 20 (1%), ARP-AP sites are visualized with ECL reagents (Amersham Corp.) (FIG. 22A) and quantitated by scanning densitometer (FIG. 22B).

`CON` [MX, methoxyamine] was tested, and the “potentiation of TMZ by MX” value (DEtp cell line) was “decreased”, the “Tumor growth delays” value (HCT116 xenograft) was 2.2 ± 0.4 days and the “AP sites MX bound” value (AP sites in SW480 cells) was 80%. For the same compound, the “potentiation of TMZ cytotoxicity” value [1] was “no potentiation”, the “sensitivity to killing induced by H2O2” value (HCT116 cells) was “significantly increased sensitivity” and the “Tumor growth delays” value (SW480 xenograft) was 2.0 ± 0.5 days. For the same compound, the “AP binding sites blocked (relative reduction of ARP-detected AP sites by densitometry)” value [2] was 38-80%.
